{"source": "patent US6645986B2", "about": "(Pfizer Products, Inc., priority 2000, dated 2003)", "origin": "cited, not measured here", "conditions": "compared with the anhydrous mesylate salt", "note": "Structures can show the parent of a compound that is named as a salt."}
{"compound": "C[C@@H]([C@@H](O)c1ccc(O)cc1)N1CCC(O)(c2ccccc2)CC1", "note": "[mesylate salt trihydrate, (1S,2S)-1-(4-hydroxyphenyl)-2-(4-hydroxy-4-phenylpiperidin-1-yl)-1-propanol mesylate trihydrate]", "values": [{"measurement": "stability of crystalline form", "value": "more stable crystalline form than the anhydrous mesylate salt"}]}
